{
  "source": "patent US10472418B2",
  "about": "“Composition for preventing or treating lung cancer comprising antibody against CD66C and chemotherapeutic agent” (DINONA, priority 2016, dated 2019)",
  "tested_on": "anti-CD66c antibody, AP11",
  "test": "Inhibition of AP11 binding on A549 cells by recombinant antigen, flow cytometry",
  "settings": "10, 50 and 100 μg recombinant antigen conjugated with AP11 before A549 cells",
  "experimental": "In order to confirm whether the purified recombinant antigen (CD66c-HuIgFc) in the above Example 1-3 acts as CD66c antigen, inhibition of conjugation of anti-CD66c antibody, AP11, on the surface of A549 cells by the above recombinant antigen was confirmed by flow cytometry, and the result is shown in FIG. 6.\nSpecifically, after conjugating 0, 10, 50 and 100 μg of the above recombinant antigen with AP11 antibody for 30 min at 4° C., it was added to A549 cells and reacted for 30 min at 4° C., added with 3 ml of PBS, centrifuged for 3 min at 1500 rpm and washed. To confirm the conjugated antibody, secondary antibody, goat anti-Mouse IgM FITC (DiNonA) was diluted 200 times, added, reacted for 15 min at 4° C., washed as above with 3 ml of PBS and measured by flow cytometry.",
  "data": [
    {"substance": "CD66c-HuIgFc: recombinant antigen linking CD66c 34~340 aa region and human immunoglobulin Fc region CH2-CH3", "values": [
      {"measurement": "blocking of anti-CD66c mAb (AP11) binding to A549 cells", "value": "blocking was observed proportional to the treated amount"}
    ]}
  ]
}
